EPA's CvTdb concentration-time database

What was measured:
Rat [1] = experiment: concentration in plasma after dosing; conditions: 6 h; dosed: Gemfibrozil; 100 mg/kg; oral; Male; Sprague-Dawley
Rat [2] = experiment: concentration in plasma after dosing; conditions: 2 h; dosed: Gemfibrozil; 50 mg/kg; oral; Male; Sprague-Dawley
Rat [3] = experiment: concentration in plasma after dosing; conditions: 0.25 h; dosed: Gemfibrozil; 100 mg/kg; oral; Male; Sprague-Dawley
Rat [4] = experiment: concentration in plasma after dosing; conditions: 4 h; dosed: Gemfibrozil; 100 mg/kg; oral; Male; Sprague-Dawley
Rat [5] = experiment: concentration in brain after dosing; conditions: 0.5 h; dosed: Fluorotelomer alcohol 8+2; 80 mg/kg; oral; Female; Harlan Sprague Dawley
Rat [6] = experiment: concentration in liver after dosing; conditions: 6 h; dosed: Fluorotelomer alcohol 8+2; 80 mg/kg; oral; Female; Harlan Sprague Dawley
Rat [7] = experiment: concentration in liver after dosing; conditions: 12 h; dosed: Fluorotelomer alcohol 8+2; 24 mg/kg; oral; Male; Harlan Sprague Dawley
Rat [8] = experiment: concentration in liver after dosing; conditions: 3 h; dosed: Fluorotelomer alcohol 8+2; 80 mg/kg; oral; Female; Harlan Sprague Dawley
Rat [9] = experiment: concentration in brain after dosing; conditions: 12 h; dosed: Fluorotelomer alcohol 8+2; 24 mg/kg; oral; Male; Harlan Sprague Dawley
Rat [10] = experiment: concentration in liver after dosing; conditions: 0.5 h; dosed: Fluorotelomer alcohol 8+2; 24 mg/kg; oral; Male; Harlan Sprague Dawley
Rat [11] = experiment: concentration in plasma after dosing; conditions: dosed: 678-39-7, 40 mg/kg, iv, Male, F344
Rat [12] = experiment: concentration in kidney after dosing; conditions: 3 h; dosed: Fluorotelomer alcohol 8+2; 24 mg/kg; oral; Male; Harlan Sprague Dawley
Rat [13] = experiment: concentration in kidney after dosing; conditions: 1 h; dosed: Fluorotelomer alcohol 8+2; 80 mg/kg; oral; Female; Harlan Sprague Dawley
Rat [14] = experiment: concentration in plasma after dosing; conditions: dosed: Fluorotelomer alcohol 8+2, 12 mg/kg, oral, Male, Harlan Sprague Dawley
Rat [15] = experiment: concentration in liver after dosing; conditions: 3360 h; dosed: Perfluorooctane Sulfonate; 20 mg/kg; oral; Male; Harlan Sprague Dawley
Rat [16] = experiment: concentration in liver after dosing; conditions: 6 h; dosed: Perfluorooctane Sulfonate; 2 mg/kg; oral; Female; Harlan Sprague Dawley
Rat [17] = experiment: concentration in liver after dosing; conditions: 3360 h; dosed: Perfluorooctane Sulfonate; 20 mg/kg; oral; Male; Harlan Sprague Dawley; remark: listed apart in the source
Rat [18] = experiment: concentration in liver after dosing; conditions: 24 h; dosed: Perfluorooctane Sulfonate; 20 mg/kg; oral; Male; Harlan Sprague Dawley
Rat [19] = experiment: concentration in plasma after dosing; conditions: dosed: Perfluorooctane Sulfonate, 2 mg/kg, oral, Female, Harlan Sprague Dawley
Rat [20] = experiment: concentration in plasma after dosing; conditions: 1848 h; dosed: Perfluorooctane Sulfonate; 2 mg/kg; oral; Female; Harlan Sprague Dawley
Rat [21] = experiment: concentration in plasma after dosing; conditions: dosed: Perfluorooctane Sulfonate, 2 mg/kg, iv, Male, F344
Rat [22] = experiment: concentration in plasma after dosing; conditions: dosed: Perfluorooctane Sulfonate, 2 mg/kg, iv, Male, F344; remark: listed apart in the source
Rat [23] = experiment: concentration in kidney after dosing; conditions: 864 h; dosed: Perfluorooctane Sulfonate; 20 mg/kg; oral; Male; Harlan Sprague Dawley
Rat [24] = experiment: concentration in brain after dosing; conditions: 0.75 h; dosed: 2-Methyltetrahydrofuran; 40 mg/kg; iv; Male; Harlan Sprague Dawley
Rat [25] = experiment: concentration in brain after dosing; conditions: 4 h; dosed: 2-Methyltetrahydrofuran; 40 mg/kg; iv; Male; Harlan Sprague Dawley
rat [26] = experiment: amount in urine after dosing (umol); conditions: inhalation, duration: 4 hr, F344 (Harlan Winkelmann)
Rat [27] = experiment: concentration in liver after dosing; conditions: 6 h; dosed: Perfluorohexanoic Acid; 80 mg/kg; oral; Female; Harlan Sprague Dawley
Rat [28] = experiment: concentration in liver after dosing; conditions: 1 h; dosed: Perfluorohexanoic Acid; 80 mg/kg; oral; Male; Harlan Sprague Dawley
Rat [29] = experiment: concentration in brain after dosing; conditions: 1 h; dosed: Perfluorohexanoic Acid; 80 mg/kg; oral; Female; Harlan Sprague Dawley
Rat [30] = experiment: concentration in plasma after dosing; conditions: dosed: Perfluorohexanoic Acid, 40 mg/kg, iv, Male, F344
Rat [31] = experiment: concentration in kidney after dosing; conditions: 12 h; dosed: Perfluorohexanoic Acid; 80 mg/kg; oral; Male; Harlan Sprague Dawley
Rat [32] = experiment: concentration in plasma after dosing; conditions: dosed: Perfluorohexanoic Acid, 80 mg/kg, oral, Male, Harlan Sprague Dawley
Rat [33] = experiment: concentration in plasma after dosing; conditions: 1.5 h; dosed: Perfluorohexanoic Acid; 40 mg/kg; iv; Male; F344
Rat [34] = experiment: concentration in kidney after dosing; conditions: 6 h; dosed: Perfluorohexanoic Acid; 80 mg/kg; oral; Male; Harlan Sprague Dawley

Cc1ccc(C)c(OCCCC(C)(C)C(=O)O)c1 [Gemfibrozil]
Conditions	concentration in plasma [µg/mL]
Rat [1]	22.7
Rat [2]	7.21
Rat [3]	72.3
Rat [4]	7.12

O=C(O)CCC(F)(F)C(F)(F)C(F)(F)C(F)(F)C(F)(F)C(F)(F)C(F)(F)F [Fluorotelomer acid 7+3]
Conditions	concentration in brain [ng/g]	concentration in kidney [ng/g]	concentration in liver [ng/g]
Rat [5]	152	–	–
Rat [6]	–	–	7770
Rat [7]	–	–	1580
Rat [8]	–	–	11400
Rat [9]	98.2	–	–
Rat [10]	–	–	347
Rat [12]	–	1450	–
Rat [13]	–	762	–

concentration in plasma [µg/mL]
Conditions	0.5 h	1 h	9 h	24 h
Rat [11]	0.47	–	2.68	–
Rat [14]	–	0.334	–	0.377

O=S(=O)([O-])C(F)(F)C(F)(F)C(F)(F)C(F)(F)C(F)(F)C(F)(F)C(F)(F)C(F)(F)F [Perfluorooctane Sulfonate]
Conditions	concentration in kidney [ng/g]	concentration in liver [ng/g]	concentration in plasma [µg/mL]
Rat [15]	–	29100	–
Rat [16]	–	27200	–
Rat [17]	–	23900	–
Rat [18]	–	164000	–
Rat [20]	–	–	0.987
Rat [23]	17800	–	–

Conditions	concentration in plasma [µg/mL]
Rat [19], 12 h	6.28
Rat [19], 528 h	2.27
Rat [21], 12 h	4.88
Rat [21], 864 h	2.12
Rat [22], 6 h	4.22
Rat [22], 864 h	1.29
Rat [22], 3216 h	0.359

CC1CCCO1 (stereo unspecified) [2-Methyltetrahydrofuran]
Conditions	concentration in brain [µg/mL]
Rat [24]	11.4
Rat [25]	0.184

CC(O)C(C)(C)O (stereo unspecified) [2-methyl-2,3-butanediol]
amount in urine, rat [26], dosed: tert-amyl methyl ether
Conditions	3.8 ppm	38.4 ppm
5.961 h	–	1.13
5.981 h	0.237	–
11.86 h	0.262	–
12.08 h	–	2.25
17.94 h	0.179	1.18
23.82 h	0.0479	–
23.95 h	–	0.366
29.9 h	0.0229	–
29.96 h	–	0.165
35.73 h	0.0302	–
36.08 h	–	0.225
41.81 h	0.024	–
41.88 h	–	0.175
47.74 h	0.0115	–
47.95 h	–	0.084

O=C(O)C(F)(F)C(F)(F)C(F)(F)C(F)(F)C(F)(F)F [Perfluorohexanoic Acid]
Conditions	concentration in brain [ng/g]	concentration in kidney [ng/g]	concentration in liver [ng/g]	concentration in plasma [µg/mL]
Rat [27]	–	–	6260	–
Rat [28]	–	–	88800	–
Rat [29]	1270	–	–	–
Rat [31]	–	1180	–	–
Rat [33]	–	–	–	0.175
Rat [34]	–	16900	–	–

concentration in plasma [µg/mL]
Conditions	0.25 h	6 h	24 h
Rat [30]	19.1	2.38	–
Rat [32]	156	–	0.416

CC(C)(O)C(=O)O [2-hydroxyisobutyrate]
rat [26]
Conditions	amount in urine
5.92 h, dosed: ethyl tert-butyl ether, 4.5 ppm	0.229
5.923 h, dosed: methyl tert-butyl ether, 38.7 ppm	1.23
5.99 h, dosed: ethyl tert-butyl ether, 40.6 ppm	1.23
11.86 h, dosed: ethyl tert-butyl ether, 4.5 ppm	0.657
11.94 h, dosed: ethyl tert-butyl ether, 40.6 ppm	3.65
11.94 h, dosed: methyl tert-butyl ether, 38.7 ppm	6.37
11.97 h, dosed: methyl tert-butyl ether, 4.5 ppm	0.837
17.79 h, dosed: ethyl tert-butyl ether, 4.5 ppm	1.03
17.99 h, dosed: methyl tert-butyl ether, 38.7 ppm	2.57
18.01 h, dosed: methyl tert-butyl ether, 4.5 ppm	0.625
18.03 h, dosed: ethyl tert-butyl ether, 40.6 ppm	5.39
23.79 h, dosed: ethyl tert-butyl ether, 4.5 ppm	0.405
23.95 h, dosed: methyl tert-butyl ether, 4.5 ppm	0.205
23.95 h, dosed: methyl tert-butyl ether, 38.7 ppm	0.915
23.98 h, dosed: ethyl tert-butyl ether, 40.6 ppm	0.922
29.73 h, dosed: ethyl tert-butyl ether, 4.5 ppm	0.355
29.93 h, dosed: ethyl tert-butyl ether, 40.6 ppm	0.521
29.93 h, dosed: methyl tert-butyl ether, 38.7 ppm	0.315
29.96 h, dosed: methyl tert-butyl ether, 4.5 ppm	0.239
